pIC50: −log10 of the molar value.
Target: MAP kinase-activated protein kinase 2 (Homo sapiens, UniProt P49137)
Experiment: Inhibition of GST-tagged MAPKAPK2 assessed as [33P] incorporation after 40 mins by scintillation proximity assay

MAP kinase-activated protein kinase 2, sequence (P49137 whole entry): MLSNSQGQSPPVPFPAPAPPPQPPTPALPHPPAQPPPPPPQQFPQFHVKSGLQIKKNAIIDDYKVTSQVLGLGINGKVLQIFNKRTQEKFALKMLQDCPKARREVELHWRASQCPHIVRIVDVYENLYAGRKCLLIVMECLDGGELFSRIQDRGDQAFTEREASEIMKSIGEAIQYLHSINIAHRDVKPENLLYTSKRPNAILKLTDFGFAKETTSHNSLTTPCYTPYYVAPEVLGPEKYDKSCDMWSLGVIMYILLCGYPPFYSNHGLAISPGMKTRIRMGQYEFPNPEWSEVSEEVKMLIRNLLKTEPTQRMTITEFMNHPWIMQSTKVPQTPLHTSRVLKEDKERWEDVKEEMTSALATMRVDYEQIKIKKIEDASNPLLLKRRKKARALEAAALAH

CC(C)=CCC/C(C)=C/C[C@]12C[C@@H](CC=C(C)C)C(C)(C)[C@](C/C=C(\C)CCC=C(C)C)(C(=O)C(C(=O)c3ccc(O)c(O)c3)C1=O)C2=O (some centres not stated) [guttiferone O]
pIC50: 4.66

CC(C)=CCC/C(C)=C/C[C@]12C[C@@H](CC=C(C)C)[C@](C)(CCC=C(C)C)[C@](CC=C(C)C)(C(=O)C(C(=O)c3ccc(O)c(O)c3)C1=O)C2=O (some centres not stated) [guttiferone P]
pIC50: 4.66

Reference: BindingDB's records for doi:10.1021/np900246t (Griffith University, 2009)
